Assay results: patent US20240110200A1, “Recombinant AAV Vectors and Gene Therapies for Treating Brain Diseases” (City University of Hong Kong, priority 2022, published 2024)
*1 amine or outer side, *2 acyl side, *3 side chain or, on linkers, in order; H or OH if unused. Where a SMILES comes first, the peptide text is derived from it. Where no end group is shown, it is not given here. Side-chain parts run from the residue outwards. [ ]: non-standard residue; d: D form. The star is where a group is joined. NMeF = CN[C@@H](Cc1ccccc1)C(=O)O; NH(2-Me-phenyl) = Cc1ccccc1N*; Boc = CC(C)(C)OC(=O)*; CO = O=C([*:1])[*:2]; Ahx = NCCCCCC(=O)O

Experiments:
GPR173 [1] = target: T1, GPR173 (Homo sapiens, UniProt Q9NS66); assay: Calcium imaging assay in CHO-GPR173 cell line; type: cell-based; conditions: for calcium signal in CHO-GPR173 cells: after incubation with the peptide
Procedure: (§1) All measurements of calcium imaging are performed by EnVision 2104 Multilabel Reader (Perkin Elmer, Waltham, Massachusetts, US, https://www.perkinelmer.com, excitation: 485 nm and emission: 535 nm). […] Cells are cultured at 37° C., 5% CO2 in DMEM/F-12 medium (Thermo Fisher, Waltham, MA, US, https://www.thermofisher.cn) containing 10% FBS (Natocor-Industria Biológica) and washed with DMEM/F-12 medium once after overnight incubation.

GPR173 [2] = target: T1, GPR173; assay: Antagonism of CCK1R/2R antagonists to GPR173; type: cell-based
Procedure: as §1

Flag-GPR173 = target: T2, Flag-GPR173 (Homo sapiens, UniProt Q9NS66); assay: Cell surface binding assay, HEK293T cells transfected with Flag-GPR173; conditions: CCK-binding assay, FIG. 4B
T2 construct: host or cells: HEK293T
Procedure: HEK293T cells are transfected with pCDNA3.1(+)-Flag-GPCR (purchased from Public Protein/Plasmid Library, Nanjing, China, http://ppl.biogot.com; or home-made by us based on pCDNA3.1(+) backbone). The cells are incubated with HA-ε-Ahx-ε-Ahx or HA-(ε-Ahx)2-CCK8s dissolved in HHBS solution (Hank's solution including 20 mM N-2-hydroxyethylpiperazine-N′-2-ethanesulfonic acid (HEPES), pH=7.4) for 30 min at room temperature, 48 h after transfection by Lipo6000 (Beyotime Biotechnology, Shanghai, China, https://www.beyotime.com/). After three washes with HHBS, cells are fixed in 4% paraformaldehyde and 4% sucrose in PBS for 15 min at room temperature. Cells are blocked in 5% normal goat serum in PBS, and staining is performed in detergent-free conditions without cell permeabilization after three washes by PBS. Primary antibody rabbit anti-HA (CST, 3724 Boston, US, https://www.cellsignal.com), anti-GPR173 (PA5-50976, ThermoFisher, Waltham, MA, US, https://www.thermofisher.cn) and mouse anti-Flag (CST-8146, Boston, US, https://www.cellsignal.com) are used to detect HA and Flag tags. For binding assay of pCDNA3.1(+)-AcGFP-CCK1R, only rabbit anti-HAprimary antibody is used to detectHAtag. Images are captured on a Leica SP8 confocal microscope (Leica Microsystems, Danaher Corporation, US, https://www.leica-microsystems.com/). […]

[3] = system: pyramidal neurons (CCK-GABA synapses) in the AC; assay: In vitro patch-clamp recording of laser-evoked IPSC in pyramidal neurons of auditory cortex brain slices; type: cell-based, CCK-Cre mice
Procedure: In the experiments of FIGS. 2-3, a protective cutting and recovery method is adopted in preparing acute brain slices of CCK-Cre, PV-Cre, CCK-KO, and CCK1R/2R-KO mice to achieve a higher success rate for patch-clamp, as previously described in Chen, X., et al., Natl. Acad. Sci., Vol. 116, pp. 2019. Briefly, the anaesthetized mice are perfused transcardially with NMDG-aCSF (92 mM NMDG, 2.5 mM KCl, 1.25 mM NaH2PO4, 30 mM NaHCO3, 20 mM HEPES, 25 mM glucose, 2 mM thiourea, 5 mM Na-ascorbate, 3 mM Na-pyruvate, 0.5 mM CaCl2·4H2O, and 10 mM MgSO4·7H2O; pH 7.3-7.4), and the brain is extracted and cut into 300 μm-thick sections. The slices are transferred to NMDG-aCSF for 10 min at 32-34° C. to allow protective recovery and then to room-temperature HEPES-aCSF (92 mM NaCl, 2.5 mM KCl, 1.25 mM NaH2PO4, 30 mM NaHCO3, 20 mM HEPES, 25 mM glucose, 2 mM thiourea, 5 mM Na-ascorbate, 3 mM Na-pyruvate, 2 mM CaCl2·4H2O, and 2 mM MgSO4·7H2O; pH 7.3-7.4) for at least 1 h before recording.
Whole-cell recordings (with Multiclamp 700B amplifier and Digital 1440A digitizer, Molecular Devices, www.moleculardevices.com, Menlo Park, California, USA), targeting the AC of the brain slices in room-temperature aCSF (119 mM NaCl, 2.5 mM KCl, 1.25 mM NaH2PO4, 24 mM NaHCO3, 12.5 mM glucose, 2 mM CaCl2·4H2O and 2 mM MgSO4·7H2O, ˜25° C.) are performed. Patch pipettes are pulled with resistance between 3-5 MQ from borosilicate glass (WPI, World Precision Instruments; UK; httpss://www.wpiinc.com/) on a Sutter-87 puller (Sutter Instrument; CA, US, https://www.sutter.com/). The intracellular solution contains: 145 mM K-Gluconate, 10 mM HEPES, 1 mM EGTA, 2 mM Mg-ATP, 0.3 mM Na2-GTP, and 2 mM MgCl2; pH 7.3; 290-300 mOsm. Similarly, after Giga-Ohm seal formation, recordings are made and then terminated if Rs changes more than 20%. Pyramidal neurons are selected based on the pyramidal-like shape and the firing pattern of regular spiking by injecting step currents.
Laser stimulation is applied through an optical fiber placed ˜200 μm from the recording neuron using Aurora-220 (473 nm, NEWDOON, Changchun, China; http://www.newdoon.com/) to activate ChR2^+ neurons (GABAergic). In the examples, only neurons that respond to the laser pulse is recruited. HFLS (10-pulse burst at 40 Hz, repeated for 10 trials) or Low-frequency Laser Stimulation (LFLS, 1 Hz, 100 pulses) with a 15-s interval is delivered. Inhibitory postsynaptic currents (IPSCs) to the laser stimulation (1 pulse per 15 s, 5 ms in duration) under voltage-clamp recording mode (holding at −60 mV to −50 mV) are recorded for 5 min as the baseline before and for 25 min after the HFLS or LFLS.
For the normalization of recorded IPSC in the CCK-Cre, PV-Cre, CCK-KO, and CCK1R/2R-KO mice, only the patched neurons are recruited when the IPSC is greater than 35 pA.

[4] = target: T3, Flag-HTR1B on transfected HEK293T cells (UniProt P28222 1-390); assay: cell surface binding assay on HEK293T cells transfected with Flag-tagged GPCRs, anti-HA and anti-Flag staining, confocal
T3 construct: whole, on cells
T3 sequence (P28222 whole entry): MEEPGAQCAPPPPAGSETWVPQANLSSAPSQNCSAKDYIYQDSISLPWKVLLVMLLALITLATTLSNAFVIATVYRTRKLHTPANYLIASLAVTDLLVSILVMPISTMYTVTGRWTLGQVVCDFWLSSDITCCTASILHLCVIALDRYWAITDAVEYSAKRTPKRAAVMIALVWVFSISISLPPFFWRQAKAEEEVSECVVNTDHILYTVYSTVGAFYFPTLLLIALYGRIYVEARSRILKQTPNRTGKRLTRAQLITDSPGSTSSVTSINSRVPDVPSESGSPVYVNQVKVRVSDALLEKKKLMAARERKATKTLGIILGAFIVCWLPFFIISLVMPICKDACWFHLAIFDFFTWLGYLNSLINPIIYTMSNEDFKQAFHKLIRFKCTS
Procedure: HEK293T cells are transfected with pCDNA3.1(+)-Flag-GPCR (purchased from Public Protein/Plasmid Library, Nanjing, China, http://ppl.biogot.com; or home-made by us based on pCDNA3.1(+) backbone). […] After three washes with HHBS, cells are fixed in 4% paraformaldehyde and 4% sucrose in PBS for 15 min at room temperature. Cells are blocked in 5% normal goat serum in PBS, and staining is performed in detergent-free conditions without cell permeabilization after three washes by PBS. […] For binding assay of pCDNA3.1(+)-AcGFP-CCK1R, only rabbit anti-HAprimary antibody is used to detectHAtag. Images are captured on a Leica SP8 confocal microscope (Leica Microsystems, Danaher Corporation, US, https://www.leica-microsystems.com/). Images within each experiment are collected using identical laser-power, offset, and gain.

T1 sequence (Q9NS66 whole entry, species assumed): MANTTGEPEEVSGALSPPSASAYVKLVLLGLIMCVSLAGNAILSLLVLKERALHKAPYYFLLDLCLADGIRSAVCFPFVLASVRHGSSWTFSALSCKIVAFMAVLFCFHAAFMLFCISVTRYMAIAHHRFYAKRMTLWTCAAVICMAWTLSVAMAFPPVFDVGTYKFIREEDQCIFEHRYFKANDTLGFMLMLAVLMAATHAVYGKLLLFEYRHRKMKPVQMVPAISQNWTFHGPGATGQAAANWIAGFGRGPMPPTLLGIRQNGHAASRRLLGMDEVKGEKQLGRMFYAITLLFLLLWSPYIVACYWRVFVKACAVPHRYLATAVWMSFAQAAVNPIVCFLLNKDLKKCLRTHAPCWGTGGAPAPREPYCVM
T2 sequence (Q9NS66 whole entry): as the sequence (Q9NS66 whole entry, species assumed) above

Row | Molecule | calcium signal in CHO-GPR173 cells (GPR173 [1]) | IC50 (GPR173 [2]) [nM] | other results
1 | Phoenixin (DVQPPGLKVWSDPF) [PNX, Phoenixin, peptide claimed in the literature to act through GPR173] | no calcium signal | – | –
2 | Cc1ccccc1NC(=O)NCCCC[C@H](NC(=O)[C@H](Cc1c[nH]c2ccccc12)NC(=O)OC(C)(C)C)C(=O)N[C@@H](CC(=O)O)C(=O)N(C)[C@@H](Cc1ccccc1)C(N)=O [A-71623] (Boc-WK([CO-NH(2-Me-phenyl)])D[NMeF]-NH2) | – | – | activation of the CHO-GPR173 cell line (GPR173 [1]; even at 100 μM): does not activate
3 | CCCCCN(CCCOC)C(=O)C(CCC(=O)O)NC(=O)c1ccc(Cl)c(Cl)c1 (centres unmarked) [Loxiglumide] | – | 715 ± 99.4 | –
4 | CNc1cccc(NC(=O)N[C@@H]2N=C(c3ccccn3)c3ccccc3N(CC(=O)C(C)(C)C)C2=O)c1 [YF476] | – | 3100 | –
5 | Cc1cccc(NC(=O)N[C@@H]2N=C(c3ccccc3)c3ccccc3N(C)C2=O)c1 [L365,260] | – | 16800 | –
6 | CCK4: CCK2R-selective agonist | evokes no response | – | –
7 | CCK8s | strong calcium response | – | binding affinity of Flag-GPR173 with CCK8s (Flag-GPR173): prominent binding affinity; normalized IPSC amplitude 25-30 min after CCK8s+1 Hz ([3]; 200-nM CCK8s bath application 3 min before LFLS (1 Hz, 100 pulses), baseline 100.00±2.53, n=8 neurons): 161.84±4.38%; iLTP after CCK8s followed by LFLS ([3]; CCK8s+1 Hz group vs aCSF+1 Hz): large iLTP
8 | CN1C(=O)[C@@H](NC(=O)c2cc3ccccc3[nH]2)N=C(c2ccccc2)c2ccccc21 [Devazepide] | – | 12.3 ± 3.41 | blockade of HFLS-induced iLTP ([3]; Devazepide 60 nM in bath solution): entirely blocks the iLTP; normalized IPSC 20-25 min after Devazepide infusion and the HFLS ([3]; Devazepide 60 nM in bath solution, baseline 100.18±1.91, HFLS alone 183.70±6.25%, n=8): 103.24±2.54%
9 | {HA tag-Ahx-Ahx}-DYMGWMDF (peptide, UniProt P06307 96-103, looked up, not shown: small tags and cut ends, ends and bridges not checked; also: sulphated CCK8, site not given here, Chemically synthesised; also called HA-(ε-Ahx)2-CCK8s; HA-labeled CCK8s) [HA2A8s (HA-ε-Ahx-ε-Ahx-CCK8s)] | – | – | binding result [4]: no binding
